Consider three molecules from patent US11612641B2, “Method for treating Huntingtons's disease” (UNIVERSITY OF IOWA RESEARCH FOUNDATION, priority 2014, dated 2023).

“Also recorded” adds a separate entry of the source.

The test system of data set [1] is medium spiny neurons (MSN). The experiment in a line: DARPP-32 staining: MSN cell area and striatal volume in N171-82Q mice. In kind it is in vivo, mouse. An excerpt: (§1) All animal protocols were approved by the University of Iowa Animal Care and Use Committee. N171-82Q mice were obtained from Jackson Laboratories (Bar Harbor, Me.) and maintained on B6C3F1/J background. Mice were genotyped using primers specific for the mutant human HTT transgene, and hemizygous and age-matched wild-type littermates were used for the indicated experiments. Mice were housed in a controlled temperature environment on a 12-hour light/dark cycle. Food and water were provided ad libitum. For pharmacological studies, RAD001 was obtained from LC Laboratories, diluted to 2 mg/ml in 2% DMSO, and stored at −20° C. […]
Floating, 40-μm coronal brain sections were processed for immunohistochemical staining of medium spiny neurons or mHTT aggregates using biotin-labeled antibody. […] S6 phosphorylation was detected with a phospho-S6 antibody (S235/236, 1:300, Cell Signaling). […] The areas of DARPP-32 positive MSN were quantified by Olympus DP2-BSW software (version 2.1). The average MSN areas of ipsilateral injected sides were compared to contralateral control sides and expressed as means+SEM. EM48 positive inclusions were counted by an experimenter blinded to treatment groups.
Striatal volume was calculated using point counting methods with the Cavalieri estimator of volume (Michel and Cruz-Orive, 1988). […] A minimum of 200 points were counted over 5 sections. […]

Another data set concerns the target T1, mTORC1 (Mus musculus, UniProt P26883+Q9JLN9).
T1 construct: Biochemical assessment of mTORC1 activity (pS6) in striatal lysates from N171-82Q mice; from tissue; host or cells: striatum of N171-82Q transgenic mice (in vivo)
The experiment in a line: mTORC1 activity (pS6) in striatum of N171-82Q mice given RAD001. In kind it is in vivo. Particulars: RAD001 for 2 weeks vs vehicle, striata harvested 24 hours after the last dose.
Text: as §1, with “C. Freshly thawed vehicle and RAD001 (30 μmol/kg) were given 3 times per week (Monday, Wednesday, and Friday) for two weeks by gavage as described previously (Fox et al., 2010).” for “C.”
Floating, 40-μm coronal brain sections were processed for immunohistochemical staining of medium spiny neurons or mHTT aggregates using biotin-labeled antibody. […] S6 phosphorylation was detected with a phospho-S6 antibody (S235/236, 1:300, Cell Signaling). […] The areas of DARPP-32 positive MSN were quantified by Olympus DP2-BSW software (version 2.1). The average MSN areas of ipsilateral injected sides were compared to contralateral control sides and expressed as means+SEM. EM48 positive inclusions were counted by an experimenter blinded to treatment groups. […]

Data set [2] has as its system Q7 and Q111 striatal cells. Nature of the data set: Western blot of Q7 and Q111 striatal cells treated with Torin1. The note with it: 250 nM Torin1, 24 hours. In kind it is cell-based. On the procedure: (§2) Mutant (Q111) and WT (Q7) striatal cells (Trettel et al., 2000) with full-length HTT were kindly provided by Dr. Marcy MacDonald. The Q7 and Q111 cells were grown at 37° C. in Dulbecco's modified Eagle's medium (DMEM; Sigma Chemical Co, St. Louis, Mo.) supplemented with 10% fetal bovine serum, 1% non-essential amino acids, 2 mM L-glutamine, and 400 μg/ml G418 (Geneticin; Invitrogen, Carlsbad, Calif.).
Mouse striata were harvested and lysed in RIPA buffer containing 50 mM Tris (pH 8.0), 150 mM NaCl, 1% […] detergent, 0.1% SDS detergent, 0.5% deoxycholic acid, and 1 mM β-mercaptoethanol with protease inhibitors (Complete Mini, Roche Applied Science, Mannheim, Germany) and phosphatase inhibitors (PhosSTOP Phosphatase Inhibitor Cocktail, Roche Applied Science, Mannheim, Germany). Tissues were homogenized on ice and spun at 14,000 g for 20 min. Supernatant were used for analysis. Protein concentration was determined by BCA assay (Pierce, Rockford, Ill.) and 20-30 μg of protein was reduced and separated by SDS-PAGE on 4%-10% acrylamide gels and transferred to 0.2 μm Immobilon PVDF membranes (Millipore, Billerica, Mass.). The primary antibodies used were as follows: DARPP-32 (1:1000, Cell Signaling), β-actin (Sigma-Aldrich, 1:5000), S6 (1:1000, Cell Signaling), phospho-S6 (S235/236, 1:1000, Cell Signaling), 4EBP1 (1:1000, Cell Signaling), phospho-4E-BP1 (T37/46, 1:1000, Cell Signaling), mTOR (1:1000, Cell Signaling), Rictor (1:1000, Cell Signaling), Raptor (1:1000, Cell Signaling), CREB (1:1000, Cell Signaling), TORC1 (1:1000, Cell Signaling), PGC1-α (1:1000, abeam), LC3 (1:1000, Novus Biologicals), and Beclin1 (1:1000, Cell Signaling). Secondary antibodies used were HRP-goat anti-mouse IgG and HRP-goat anti-rabbit IgG (Cell Signaling). Blots were developed using ECL Plus Western Blotting Detection System (GE Healthcare, Pittsburgh, Pa.), and then exposed to film. Protein quantification was performed using NIH ImageJ software or the VersaDoc™ Imaging System (Biorad) and Quantity One R analysis software. Band densities were normalized to housekeeping (β-actin) bands from the same samples and lanes.
(In general: In western blotting, separated proteins are transferred to a membrane and probed.)

Data set [3] concerns Q7 and Q111 striatal cells. The experiment in a line: RT-qPCR of HMGCR and HMGCS1 in Q7 and Q111 striatal cells treated with Torin1. Particulars: 250 nM Torin1, 24 hours, both mutant and normal cell lines. The class given is cell-based. How it is done: as §2
RNA was isolated from striatal punches using 1 ml of TRIzol. Random-primed first-strand complementary DNA (cDNA) synthesis was performed using 500 ng total RNA (High Capacity cDNA Reverse Transcription Kit; Applied Biosystems, Foster City, Calif.) per manufacturer's protocol. Real-time PCR was performed on a sequence detection system (Prism 7900HT, Applied Biosystems) using SYBR green PCR mix (Invitrogen) or TaqMan 2× Universal Master Mix (Applied Biosystems). The following Taqman primer/probe sets were obtained from Applied Biosystem: Rhes (Mm04209172_m1 and Hs04188091_mH), PGC1-α (Mm01208835_m1), and HMGCS1 (Mm01304569_m1), and HDAC4 (Mm01299557_m1). The primer sequences for SYBR green RT PCR are available upon request. Relative gene expression was determined using the AACT method, normalizing to β-actin.
A general note: In qPCR the cycle at which signal appears reflects the starting amount.

The subject of a further data set is R6/2 HD mice. Particulars: R6/2 HD mice (Fox et al., 2010); cited from earlier work.

For `CO[C@H]1C[C@@H]2CC[C@@H](C)[C@@](O)(O2)C(=O)C(=O)N2CCCC[C@H]2C(=O)O[C@H]([C@H](C)C[C@@H]2CC[C@@H](OCCO)[C@H](OC)C2)CC(=O)[C@H](C)/C=C(\C)[C@@H](O)[C@@H](OC)C(=O)[C@H](C)C[C@H](C)/C=C/C=C/C=C/1C` [RAD001], the MSN atrophy entry in data set [1] (2 weeks of RAD001 treatment in the absence of caRheb, N171-82Q mice) is on record as “mild but significant exacerbation”. For the same molecule, the “morphological effects of caRheb (MSN cell size, striatal volume)” value in data set [1] (RAD001 30 μmol/kg by gavage 3 times per week for two weeks in AAV.caRheb injected N171-82Q mice) is on record as “reversed”. Besides, the “mTORC1 activity (S6 phosphorylation, pS6)” value at mTORC1 is reported as “attenuated; also recorded: inhibits mTORC1 activity”.

With `CCC(=O)N1CCN(c2ccc(-n3c(=O)ccc4cnc5ccc(-c6cnc7ccccc7c6)cc5c43)cc2C(F)(F)F)CC1` [Torin1], in data set [2], the CREB entry was “repressed”, the DARPP-32 expression entry is given as “reduced”, the PGC1-α entry is recorded as “repressed” and the p-4E-BP1 levels entry is “reduced”. In data set [2], the pS6 levels result is on record as “reduced” and the “transducer of regulated CREB 1 (TORC1)” value is recorded as “repressed”. Also, in data set [3], the HMGCR expression entry is recorded as “reduced expression” and the HMGCS1 expression entry is given as “reduced expression”.

Consider `CO[C@H]1C[C@@H]2CC[C@@H](C)[C@@](O)(O2)C(=O)C(=O)N2CCCC[C@H]2C(=O)O[C@H]([C@H](C)C[C@@H]2CC[C@@H](O)[C@H](OC)C2)CC(=O)[C@H](C)/C=C(\C)[C@@H](O)[C@@H](OC)C(=O)[C@H](C)C[C@H](C)/C=C/C=C/C=C/1C` [rapamycin], for which, in the data set on R6/2 HD mice, the brain atrophy result is reported as “enhanced brain atrophy” and the weight loss entry was “accelerated weight loss”.
